Where “and” joins values, the source holds several entries; their conditions need not be identical. Identical values can stand only once. Entries after “also recorded” stand apart in the source; their conditions may differ.
Legend:
DPH1 gene [1] = experiment: DT resistant colony count after DPH1 gene editing (homozygous gene inactivation); type: cell-based, human; details: for # of DT resistant colonies (20,000 seeded cells) / # of DT resistant colonies (20,000 seeded cells) (unheaded second sub-column: mean): DPH1 (gRNA length), TF eff. = 31%; for # of DT resistant colonies (20,000 seeded cells): MCF7, individual samples A-D; for # of DT resistant colonies (mean of the samples): DPH1 assay (integr. vs. k.o.), 20,000 seeded cells; for # of DT resistant colonies (mean of the samples) / # of DT resistant colonies: TF eff. = 38%; for # of DT resistant colonies: DPH1 assay (integr. vs. k.o.), MCF7, 20,000 seeded cells, individual samples; for generation of DTr colonies: MCF7
Protocol: MCF7 cells (Brooks, et al. 1973) were originally obtained from ATCC (subsequently propagated in an in-house cell bank) and maintained in RPMI […] medium supplemented with 10% FCS, 2 mM L-Glutamine and penicillin/streptomycin at 37° C. and 85% humidity. For transfection of plasmids harboring gene-editing modules, 3,000,000 cells were seeded in a 10 cm diameter culture dish and cultivated at 37° C. and humidified 5% CO2. 24 h after seeding, cells were transfected with 20 μg total DNA using JetPEI (Polyplus) according to the manufacturer's protocol but with an N/P ratio of 6:1. Transfection efficiency was determined after 24 h by flow cytometry (FACS Calibur, BD biosciences) of cells that were transfected with a modified eGFP expression plasmid (Zhang, et al. 1996).
Plasmids encoding CRISPR/Cas9 gene-editing entities (i.e. knock-out and integration systems) against Dph1 (gRNA target sequence: […] (SEQ ID NO: 01) derived from RefSeq: NM_001383) and Dph2 (gRNA target sequence: […] (SEQ ID NO: 02) derived from RefSeq: NM_001039589, NM_001384), and scrambled control (gRNA sequence: […] (SEQ ID NO: 03)) were obtained from OriGene. This system comprises one plasmid expressing a ˜100 nt gRNA under control of a U6 promoter as well as Cas9 nuclease under control of a CMV promoter and a Donor plasmid with a promoter-less GFP/PM expression cassette flanked by homologous arms to the target gene (Dph1 or Dph2). Additional Dph1 gRNA sequence variants of different sizes (OriGene) […]
MCF7 cells which have all chromosomal copies of DPH1 or DPH2 inactivated are resistant to diphtheria toxin (Stahl, et al. 2015). Thus, occurrence and frequency of toxin resistant cells/colonies upon CRISPR/Cas inflicted gene inactivation provides a measure for efficiency of inactivation of all gene copies. Therefore, MCF/cells were transfected as described in Example 1 with (i) a GFP expression plasmid as transfection control, (ii) the CRISPR/Cas9 Dph1 or Dph2 knock-out/integration system and (iii) knock-out/integration entities containing a scrambled gRNA to determine Cas9 independent integration frequencies. After determination of transfection efficiency, cells were seeded in 6-well plates. For quantification of homozygous knock-out events by DT 20000 cells were seeded and for quantification of integration events by PM or both events 40000 cells were seeded. RPMI medium was exchanged by RPMI medium containing DT or PM or both toxins 3 days after cell seeding. Exchange of medium was repeated every 2-3 days until all dead cells were removed from the plates and actively growing colonies could be detected via microscopic inspection. Thereafter (between day 12 and day 14 after start of toxin exposure), cells were washed 3 times with PBS and subsequently stained with ice cold methylene blue (0.2% in 50% EtOH). Methylene blue solution was subsequently removed and the plates were carefully washed under running water. Finally, cell colonies were counted under the microscope with a 5 mm grid foil.
MCF7 cells which have all chromosomal copies of DPH1 inactivated are DT resistant. Thus, occurrence and frequency of DTr colonies upon ZFN inflicted gene inactivation and/or cassette integration provides a measure for efficacy of inactivation of all gene copies. The ZFN recognition sequence ([…], cleavage site, SEQ ID NO: 10) are derived from NM_001383.3 (DPH1-wt) and were obtained from Sigma Aldrich. A PAC integration cassette for this position was obtained from OriGene. MCF7 cells were transfected as described above with (i) a GFP expression plasmid, (ii) the plasmid encoding DPH1-targeting ZFN and (iii) the DPH1-targeting PAC-integration cassette. After determination of transfection efficiency, cells were seeded in 6-well plates. For quantification of homozygous knock-out events (DTr) 20,000 cells were seeded, 40,000 cells for quantification of integration events (PMr) or double resistances. […]

DPH1 gene [2] = experiment: as above; type: cell-based, human; details: for # of DT resistant colonies (mean of the samples) / # of DT resistant colonies: TF eff. = 38%; for # of DT resistant colonies: DPH1 assay (integr. vs. k.o.), individual samples; for # of DT resistant colonies (40,000 seeded cells): DPH1 assay editing entities, MCF-7, individual replicates, TF eff. = 33%
[3] = DPH1 assay (integr. vs. k.o.), 10,000 seeded cells
[4] = DPH1 assay (integr. vs. k.o.), 40,000 seeded cells

Substance	# of DT resistant colonies (20,000 seeded cells) (DPH1 gene [1])	# of DT resistant colonies (20,000 seeded cells) (unheaded second sub-column: mean) (DPH1 gene [1])	# of DT resistant colonies (mean of the samples) (DPH1 gene [1])	# of DT resistant colonies (DPH1 gene [1])	# of DT resistant colonies (mean of the samples) (DPH1 gene [2]; [3])	# of DT resistant colonies (mean of the samples) (DPH1 gene [2]; [4])	# of DT resistant colonies (DPH1 gene [2]; MCF7, 40,000 seeded cells)	# of DT resistant colonies (40,000 seeded cells) (DPH1 gene [2])	other results
20 mer SpCas9 scRNA: Scrambled control gRNA GCACTACCAGAGCTAACTCA (SEQ ID NO: 03) with SpCas9 and donor plasmid [reference compound]	0	0	0	0	0	0	0	0	generation of DTr colonies (DPH1 gene [1]): did not generate any DTr colony; generation of DTr colonies (DPH1 gene [1]; listed as scrambled guides): did not generate any DT-resistant colony; # of DT resistant colonies (DPH1 gene [2]; MCF7, 10,000 seeded cells): 0
20 mer SpCas9 DPH1 gRNA: Plasmids encoding SpCas9 and Dph1 gRNA (target CAGGGCGGCCGAGACGGCCC, SEQ ID NO: 01) plus PAC donor plasmid, OriGene	417 and 406 and 409 and 404	409	472	364 and 545 and 543 and 435	218	947	995 and 942 and 899 and 950	476 and 492 and 468 and 472	efficiency relative to ZFN-editing (gene inactivation and integration) (DPH1 gene [1]): twice as efficient; efficiency relative to engineered high fidelity CRISPR/Cas9 (DPH1 gene [1]): 5 fold; # of DT resistant colonies (20,000 seeded cells) (DPH1 gene [1]; listed as 20 mer Dph1 CRISPR Cas9 gRNA): 417 and 406 and 409 and 404; # of DT resistant colonies (DPH1 gene [1]; listed as CRISPR Cas9 Dph1 gRNA): 364 and 545 and 543 and 435; DPH1 inactivation efficacy in dependence on gRNA length (DPH1 gene [1]; DTr colonies): maximum DPH1 inactivation efficacy; also recorded: maximal DPH1 gene inactivation efficiency; frequency of complete inactivation of the DPH1 gene (all alleles) (DPH1 gene [1]; MCF7, FIG. 5A): ~6 % of all transfected cells; efficacy of inactivation of both DPH1 alleles (DTr) over integration of the PAC expression cassette (PMr) (DPH1 gene [1]; MCF7, FIG. 6): 30-50 fold; frequency of complete inactivation of the DPH1 gene (all alleles) (DPH1 gene [1]; MCF7, considering transfection efficiencies of 40%): 2.5 % of all cells; # of DT resistant colonies (DPH1 gene [2]; MCF7, 10,000 seeded cells, listed as CRISPR Cas9 Dph1 gRNA): 201 and 224 and 219; # of DT resistant colonies (DPH1 gene [2]; MCF7, 40,000 seeded cells, listed as CRISPR Cas9 Dph1 gRNA): 995 and 942 and 899 and 950

Reference: patent US20250250559A1, “METHOD TO ANALYZE AND OPTIMIZE GENE EDITING MODULES AND DELIVERY APPROACHES” (Hoffmann-La Roche Inc., priority 2016, published 2025)
